The values that follow come from ChEMBL document CHEMBL5465560, “Selectivity Literature for EUbOPEN Chemogenomic Library” (2024).

For test [1], the target named is Serine/threonine-protein kinase N1 (Homo sapiens, UniProt Q16512). In words: Selectivity interaction (KinomeScan (DiscoverX)) EUB0000666a PKN1. The note with it: at 10 µM.
In test [2] the target is Dual specificity tyrosine-phosphorylation-regulated kinase 1A (Homo sapiens, UniProt Q13627). In words: Selectivity interaction (SelectScreen profiling (Invitrogen)) EUB0000607a DYRK1A. To be noted: at 2 µM.
Test [3] addresses T1, Tyrosine-protein kinase Mer (Homo sapiens) (UniProt Q12866).
T1 sequence (whole entry): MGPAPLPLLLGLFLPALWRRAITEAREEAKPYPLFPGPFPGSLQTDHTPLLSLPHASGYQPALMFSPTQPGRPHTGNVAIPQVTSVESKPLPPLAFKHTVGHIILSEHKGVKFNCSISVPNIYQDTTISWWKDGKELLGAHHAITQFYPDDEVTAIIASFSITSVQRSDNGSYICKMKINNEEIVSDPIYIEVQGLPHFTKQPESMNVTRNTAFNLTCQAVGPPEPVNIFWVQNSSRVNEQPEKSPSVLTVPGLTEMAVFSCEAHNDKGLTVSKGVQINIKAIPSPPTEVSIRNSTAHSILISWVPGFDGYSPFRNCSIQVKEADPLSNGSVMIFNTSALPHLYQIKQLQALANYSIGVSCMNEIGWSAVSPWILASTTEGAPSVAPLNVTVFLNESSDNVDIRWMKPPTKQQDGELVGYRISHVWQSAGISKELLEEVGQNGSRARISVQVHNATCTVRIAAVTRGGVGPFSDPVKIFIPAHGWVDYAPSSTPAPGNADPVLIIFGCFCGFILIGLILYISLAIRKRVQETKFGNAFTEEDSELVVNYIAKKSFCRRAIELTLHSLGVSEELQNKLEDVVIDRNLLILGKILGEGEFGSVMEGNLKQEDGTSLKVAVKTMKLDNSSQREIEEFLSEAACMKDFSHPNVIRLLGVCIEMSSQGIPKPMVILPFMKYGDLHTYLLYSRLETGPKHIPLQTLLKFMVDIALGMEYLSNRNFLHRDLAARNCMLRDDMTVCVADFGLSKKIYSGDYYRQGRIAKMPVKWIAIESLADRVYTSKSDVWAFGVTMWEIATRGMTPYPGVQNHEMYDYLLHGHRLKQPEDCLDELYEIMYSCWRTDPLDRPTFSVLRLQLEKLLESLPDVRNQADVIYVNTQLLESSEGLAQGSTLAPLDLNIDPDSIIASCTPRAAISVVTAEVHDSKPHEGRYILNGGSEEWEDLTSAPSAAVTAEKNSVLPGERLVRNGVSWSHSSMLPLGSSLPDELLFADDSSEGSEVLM
To be noted: at 10 µM.

Test [4] addresses Dual specificity mitogen-activated protein kinase kinase 2 (Homo sapiens) (UniProt P36507). The test is described as follows: Selectivity interaction (ActivX KiNativ screen (kinase selectivity in THP-1 cell lysates)) EUB0000639a MAP2K2. The format is subcellular. The note with it: lysate, at 0.2 µM.
Test [5] has as its target Activin receptor type-1-like (Homo sapiens) (UniProt P37023). The test is described as follows: Selectivity interaction (KinomeScan (DiscoverX)) EUB0001049a ACVRL1. To be noted: at 1 µM.
The target in test [6] is Ribosomal protein S6 kinase beta-1 (Homo sapiens, UniProt P23443). The test is described as follows: Selectivity interaction (Upstate Kinase Profiler service (Millipore)) EUB0000056c RPS6KB1. To be noted: at 1 µM.
Sequence of Ribosomal protein S6 kinase beta-1 (P23443 whole entry, looked up, the tested form may be a part): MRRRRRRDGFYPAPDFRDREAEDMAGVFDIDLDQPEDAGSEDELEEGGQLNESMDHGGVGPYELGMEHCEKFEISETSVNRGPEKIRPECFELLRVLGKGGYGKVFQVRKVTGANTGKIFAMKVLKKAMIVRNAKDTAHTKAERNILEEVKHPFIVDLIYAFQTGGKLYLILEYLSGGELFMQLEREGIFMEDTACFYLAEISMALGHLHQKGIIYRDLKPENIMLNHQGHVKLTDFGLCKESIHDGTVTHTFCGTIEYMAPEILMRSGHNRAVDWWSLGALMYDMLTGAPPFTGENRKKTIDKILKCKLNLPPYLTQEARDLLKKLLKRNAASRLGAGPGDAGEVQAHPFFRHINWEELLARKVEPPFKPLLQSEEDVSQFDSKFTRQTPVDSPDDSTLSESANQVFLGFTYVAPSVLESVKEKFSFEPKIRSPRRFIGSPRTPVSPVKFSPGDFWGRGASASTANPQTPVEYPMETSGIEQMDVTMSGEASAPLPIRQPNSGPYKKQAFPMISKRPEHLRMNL
Test [7] deals with Tudor domain-containing protein 3 (Homo sapiens) (UniProt Q9H7E2). The test is described as follows: Selectivity interaction (PWWP, WD40, and Tudor domain panel (DSLS measurements, literature)) EUB0000270b TDRD3.
Sequence of Tudor domain-containing protein 3 (Homo sapiens) (Q9H7E2 whole entry, the tested form may be a part): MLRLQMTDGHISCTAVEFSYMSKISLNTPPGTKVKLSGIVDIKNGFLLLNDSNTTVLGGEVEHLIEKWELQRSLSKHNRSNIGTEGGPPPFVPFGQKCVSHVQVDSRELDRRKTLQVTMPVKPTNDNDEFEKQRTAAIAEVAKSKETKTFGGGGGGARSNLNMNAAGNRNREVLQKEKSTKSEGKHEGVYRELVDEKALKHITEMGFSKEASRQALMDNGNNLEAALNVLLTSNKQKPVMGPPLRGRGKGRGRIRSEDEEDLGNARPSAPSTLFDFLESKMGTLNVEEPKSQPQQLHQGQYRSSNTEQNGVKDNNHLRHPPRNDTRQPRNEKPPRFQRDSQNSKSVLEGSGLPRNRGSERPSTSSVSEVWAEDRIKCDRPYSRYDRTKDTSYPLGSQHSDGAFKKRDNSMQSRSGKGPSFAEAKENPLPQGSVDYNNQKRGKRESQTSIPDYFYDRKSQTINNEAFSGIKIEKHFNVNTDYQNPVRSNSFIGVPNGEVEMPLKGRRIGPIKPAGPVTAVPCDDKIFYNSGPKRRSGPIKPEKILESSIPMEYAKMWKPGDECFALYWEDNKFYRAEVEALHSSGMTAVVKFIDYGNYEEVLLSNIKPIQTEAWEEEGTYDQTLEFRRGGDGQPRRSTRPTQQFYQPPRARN
For test [8], the target named is Transcription initiation factor TFIID subunit 1 (Homo sapiens) (UniProt P21675). In words: Selectivity interaction (Human bromodomain panel (DSF assay)) EUB0000233b TAF1. (In general: Differential scanning fluorimetry follows unfolding on heating by fluorescence.)
Sequence of Transcription initiation factor TFIID subunit 1 (Homo sapiens) (P21675 whole entry): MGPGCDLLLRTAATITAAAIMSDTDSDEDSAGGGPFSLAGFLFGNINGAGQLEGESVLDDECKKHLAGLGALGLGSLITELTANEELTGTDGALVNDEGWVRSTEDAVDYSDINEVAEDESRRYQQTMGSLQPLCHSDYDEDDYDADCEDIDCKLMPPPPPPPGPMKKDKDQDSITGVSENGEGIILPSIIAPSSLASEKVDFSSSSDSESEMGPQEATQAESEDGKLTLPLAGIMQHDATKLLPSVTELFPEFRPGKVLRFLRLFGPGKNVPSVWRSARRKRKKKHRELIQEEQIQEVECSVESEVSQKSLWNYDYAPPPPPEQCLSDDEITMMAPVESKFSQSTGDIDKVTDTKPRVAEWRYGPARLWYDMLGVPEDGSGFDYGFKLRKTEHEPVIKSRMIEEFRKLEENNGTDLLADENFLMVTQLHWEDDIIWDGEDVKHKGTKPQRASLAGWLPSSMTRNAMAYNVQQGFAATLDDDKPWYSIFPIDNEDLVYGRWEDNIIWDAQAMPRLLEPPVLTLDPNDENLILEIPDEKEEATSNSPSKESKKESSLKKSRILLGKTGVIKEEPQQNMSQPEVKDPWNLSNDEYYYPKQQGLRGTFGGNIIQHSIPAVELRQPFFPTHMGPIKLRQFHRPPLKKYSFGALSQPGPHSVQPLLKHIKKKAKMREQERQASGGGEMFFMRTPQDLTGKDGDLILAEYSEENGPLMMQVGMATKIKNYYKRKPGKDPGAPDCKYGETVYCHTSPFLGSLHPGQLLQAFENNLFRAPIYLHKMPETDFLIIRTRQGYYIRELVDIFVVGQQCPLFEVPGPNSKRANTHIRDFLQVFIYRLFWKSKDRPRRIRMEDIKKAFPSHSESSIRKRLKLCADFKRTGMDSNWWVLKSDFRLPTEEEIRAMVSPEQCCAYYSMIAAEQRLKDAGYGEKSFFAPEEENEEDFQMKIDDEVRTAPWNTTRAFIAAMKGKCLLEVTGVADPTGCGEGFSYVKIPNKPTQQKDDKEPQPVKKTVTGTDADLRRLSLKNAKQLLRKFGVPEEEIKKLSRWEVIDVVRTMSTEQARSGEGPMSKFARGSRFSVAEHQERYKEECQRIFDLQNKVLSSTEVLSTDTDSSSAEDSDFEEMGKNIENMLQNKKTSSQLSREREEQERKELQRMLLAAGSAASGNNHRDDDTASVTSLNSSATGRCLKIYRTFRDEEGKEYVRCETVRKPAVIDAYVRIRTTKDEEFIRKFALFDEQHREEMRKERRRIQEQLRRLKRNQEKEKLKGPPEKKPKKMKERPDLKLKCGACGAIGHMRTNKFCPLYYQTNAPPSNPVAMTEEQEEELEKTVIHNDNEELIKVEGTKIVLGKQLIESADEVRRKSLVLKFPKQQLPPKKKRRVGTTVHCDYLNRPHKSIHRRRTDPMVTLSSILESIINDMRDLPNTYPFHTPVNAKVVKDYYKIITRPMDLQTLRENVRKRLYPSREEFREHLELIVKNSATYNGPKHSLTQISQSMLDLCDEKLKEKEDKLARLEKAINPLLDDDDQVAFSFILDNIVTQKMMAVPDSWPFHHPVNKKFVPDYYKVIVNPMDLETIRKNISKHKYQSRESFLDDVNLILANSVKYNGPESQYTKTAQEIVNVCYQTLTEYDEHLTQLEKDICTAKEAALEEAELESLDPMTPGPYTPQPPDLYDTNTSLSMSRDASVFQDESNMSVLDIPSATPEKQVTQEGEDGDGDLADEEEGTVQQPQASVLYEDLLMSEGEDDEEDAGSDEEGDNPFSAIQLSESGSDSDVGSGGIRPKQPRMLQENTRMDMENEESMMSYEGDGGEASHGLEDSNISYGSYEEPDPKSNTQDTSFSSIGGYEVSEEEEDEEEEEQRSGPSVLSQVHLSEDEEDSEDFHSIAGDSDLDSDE
Test [9] concerns the target T2, Serine/threonine-protein kinase Nek2 (Homo sapiens) (UniProt P51955).
T2 sequence (whole entry): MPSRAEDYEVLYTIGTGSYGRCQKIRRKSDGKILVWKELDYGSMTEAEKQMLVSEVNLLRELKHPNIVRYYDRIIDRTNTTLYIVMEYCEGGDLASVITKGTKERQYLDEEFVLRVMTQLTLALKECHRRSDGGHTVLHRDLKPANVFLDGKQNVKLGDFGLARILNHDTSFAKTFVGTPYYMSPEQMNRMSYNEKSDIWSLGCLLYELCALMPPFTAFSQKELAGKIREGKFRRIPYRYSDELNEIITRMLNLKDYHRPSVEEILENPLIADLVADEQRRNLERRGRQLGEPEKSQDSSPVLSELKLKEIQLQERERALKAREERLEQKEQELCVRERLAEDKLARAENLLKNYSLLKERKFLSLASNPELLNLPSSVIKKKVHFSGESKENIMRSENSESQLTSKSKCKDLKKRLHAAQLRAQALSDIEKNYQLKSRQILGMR
In words: Selectivity interaction (KinomeScan (DiscoverX)) EUB0001079a NEK2. To be noted: at 1 µM.

The target in test [10] is T3, Beta-adrenergic receptor kinase 1 (Homo sapiens) (UniProt P25098).
T3 sequence (whole entry): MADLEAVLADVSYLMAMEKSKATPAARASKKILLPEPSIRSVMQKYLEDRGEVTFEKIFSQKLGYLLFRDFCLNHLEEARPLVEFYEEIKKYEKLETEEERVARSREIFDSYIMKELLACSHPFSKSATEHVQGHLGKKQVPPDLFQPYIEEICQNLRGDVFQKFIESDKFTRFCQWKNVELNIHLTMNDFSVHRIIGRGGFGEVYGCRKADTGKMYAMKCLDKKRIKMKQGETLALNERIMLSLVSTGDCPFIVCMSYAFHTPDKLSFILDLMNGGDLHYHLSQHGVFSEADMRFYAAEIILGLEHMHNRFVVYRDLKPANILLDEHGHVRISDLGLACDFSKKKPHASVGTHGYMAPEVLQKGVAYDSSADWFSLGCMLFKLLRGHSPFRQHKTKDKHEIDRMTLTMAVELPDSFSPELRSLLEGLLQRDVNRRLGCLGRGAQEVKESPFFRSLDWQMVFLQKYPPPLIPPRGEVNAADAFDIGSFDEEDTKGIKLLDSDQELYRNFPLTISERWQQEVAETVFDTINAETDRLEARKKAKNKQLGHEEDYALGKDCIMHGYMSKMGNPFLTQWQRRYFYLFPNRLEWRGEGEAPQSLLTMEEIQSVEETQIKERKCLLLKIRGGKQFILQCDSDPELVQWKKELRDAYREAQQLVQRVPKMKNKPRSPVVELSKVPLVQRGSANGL
In words: Selectivity interaction (KinomeScan (DiscoverX)) EUB0000229b ADRBK1. To be noted: at 10 µM.

Test [11] deals with Serine/threonine-protein kinase PAK 2 (Homo sapiens) (UniProt Q13177). The test is described as follows: Selectivity interaction (Kinase panel (KiNativ target engagement assay in Jurkat cells)) EUB0001635a PAK2. The test is classed as cell-based. To be noted: Selectivity number of off-targets 0.0, Selectivity number of targets 233.0, Source Knowledge https://www.sciencedirect.com/science/article/pii/S2451945619300674?via%3Dihub, at 1 µM.
Sequence of Serine/threonine-protein kinase PAK 2 (Homo sapiens) (Q13177 whole entry): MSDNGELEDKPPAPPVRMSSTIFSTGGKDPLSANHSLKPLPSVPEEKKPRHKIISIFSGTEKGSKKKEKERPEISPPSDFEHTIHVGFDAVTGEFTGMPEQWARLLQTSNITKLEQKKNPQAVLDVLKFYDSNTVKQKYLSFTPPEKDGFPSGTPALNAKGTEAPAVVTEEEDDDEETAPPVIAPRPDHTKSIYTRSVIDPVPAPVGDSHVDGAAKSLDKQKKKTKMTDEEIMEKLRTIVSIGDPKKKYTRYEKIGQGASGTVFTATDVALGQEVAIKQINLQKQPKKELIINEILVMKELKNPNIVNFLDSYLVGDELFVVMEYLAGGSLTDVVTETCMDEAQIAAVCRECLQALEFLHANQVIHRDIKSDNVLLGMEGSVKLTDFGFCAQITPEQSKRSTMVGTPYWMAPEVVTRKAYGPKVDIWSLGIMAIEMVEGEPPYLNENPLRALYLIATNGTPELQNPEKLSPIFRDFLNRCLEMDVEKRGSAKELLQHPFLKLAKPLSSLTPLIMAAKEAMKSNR

Sequence of Dual specificity mitogen-activated protein kinase kinase 2 (Homo sapiens) (P36507 whole entry): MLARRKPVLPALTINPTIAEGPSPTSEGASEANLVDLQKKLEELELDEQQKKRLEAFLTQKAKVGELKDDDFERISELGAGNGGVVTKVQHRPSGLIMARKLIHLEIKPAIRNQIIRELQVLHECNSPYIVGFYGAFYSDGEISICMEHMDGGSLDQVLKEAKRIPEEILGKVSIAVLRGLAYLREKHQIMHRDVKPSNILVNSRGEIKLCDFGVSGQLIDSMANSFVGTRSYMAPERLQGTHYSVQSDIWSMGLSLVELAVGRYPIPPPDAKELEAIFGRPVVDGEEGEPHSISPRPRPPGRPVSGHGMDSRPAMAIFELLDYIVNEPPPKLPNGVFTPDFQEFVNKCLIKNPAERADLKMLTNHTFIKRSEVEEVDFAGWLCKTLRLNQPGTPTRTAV
Sequence of Serine/threonine-protein kinase N1 (Q16512 2-942 limits assumed): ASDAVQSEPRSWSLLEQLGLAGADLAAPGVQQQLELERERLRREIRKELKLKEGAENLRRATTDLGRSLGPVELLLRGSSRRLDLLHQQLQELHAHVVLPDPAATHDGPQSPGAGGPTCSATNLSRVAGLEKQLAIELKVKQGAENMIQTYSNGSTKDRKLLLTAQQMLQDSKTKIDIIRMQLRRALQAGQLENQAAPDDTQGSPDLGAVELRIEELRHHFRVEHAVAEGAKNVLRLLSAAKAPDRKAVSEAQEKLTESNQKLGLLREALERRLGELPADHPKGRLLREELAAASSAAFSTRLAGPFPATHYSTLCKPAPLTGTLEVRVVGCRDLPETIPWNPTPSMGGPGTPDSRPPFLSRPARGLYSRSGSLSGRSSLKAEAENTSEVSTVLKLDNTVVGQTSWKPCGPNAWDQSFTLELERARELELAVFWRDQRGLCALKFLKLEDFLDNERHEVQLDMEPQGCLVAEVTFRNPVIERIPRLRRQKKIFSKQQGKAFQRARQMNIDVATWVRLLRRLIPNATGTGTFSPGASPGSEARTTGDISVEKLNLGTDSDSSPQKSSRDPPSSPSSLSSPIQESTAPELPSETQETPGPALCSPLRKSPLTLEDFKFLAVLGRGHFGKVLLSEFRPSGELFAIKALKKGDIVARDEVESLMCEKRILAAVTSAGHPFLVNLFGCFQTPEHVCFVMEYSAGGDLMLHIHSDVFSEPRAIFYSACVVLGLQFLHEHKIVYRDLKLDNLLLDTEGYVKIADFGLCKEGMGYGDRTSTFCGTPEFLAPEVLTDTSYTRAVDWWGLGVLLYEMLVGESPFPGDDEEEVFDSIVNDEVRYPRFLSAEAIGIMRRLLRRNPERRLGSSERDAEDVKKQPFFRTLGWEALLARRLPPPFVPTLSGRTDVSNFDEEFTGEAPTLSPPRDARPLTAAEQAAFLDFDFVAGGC

In test [1], `O=C(NOC[C@H](O)CO)c1ccc(F)c(F)c1Nc1ccc(I)cc1F` gave a % of control of 100%.

With `CNC(=O)Nc1ccc(-c2nc(N3CC4CCC(C3)O4)c3cnn(C4CCC5(CC4)OCCO5)c3n2)cc1`, the % of inhibition in [2] stood at 2%.

For the compound `Cc1cc([C@@H](C)Nc2ccccc2C(=O)O)c2nc(N3CCOCC3)cc(=O)n2c1` [AZD-6482], the % of control in test [3] amounted to 100%.

`CC[C@@H]1[C@H](F)C(=O)N[C@@H]1COc1nccc2cc(C(N)=O)c(OC)cc12` [ZIMLOVISERTIB] displayed a % of inhibition in test [4] of 11.6%.

Turning to `COc1cc(Nc2nc(C)cc(-c3cnn4nc(OC)ccc34)n2)cc(C(F)(F)F)c1`, in test [5], the % of control was 89%.

In test [6], `Cc1ccc(-c2ccc3c(ccc4sc5c(c43)NC[C@@H](C)NC5=O)n2)cn1` showed a % of inhibition of 8%.

As for `Cc1cc(CN)cc(C)c1-c1ncn(C)c1-c1cncn1C`, the dTagg in test [7] came out at 0.8 K.

In [8], `CN(C)CCCOc1ccc(-c2cc(NCCCn3cccn3)nc(S(C)(=O)=O)n2)cc1` gave a dTM of less than 2 K.

Take `Nc1cnc(N2CCc3cc(S(=O)(=O)Nc4c(F)cc(Cl)cc4F)cc(N4CCCC4=O)c32)nc1` [TP-020n]: the % of control in test [9] worked out at 89%.

`COc1cc(N(C)c2ccnc3ccc(C(F)(F)F)cc23)cc(OC)c1OC` returned a % binding in test [10] of 92%.

In turn, `C=CC(=O)Nc1ccc(C(=O)Nc2[nH]nc3c2CN(C(=O)N[C@H](CN(C)C)c2ccccc2)C3(C)C)cc1` gave a % of engagement in test [11] of 10.9%.
